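Grown in 96-well plates, cells were treated for 48 hours with each compound at five concentrations. Insufficient inhibition: endpoint recorded as highest concentration tested. GI50 = concentration required for 50% inhibition of growth.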 Activity calls are given as the source filed them. No stated cut-off is given here; in the data, active = GI50 up to about 1.1 µM and inactive = higher.
Assays:
Assay in all cases: NCI-60 cell line screen, 48 h
[1] = system: 786-0
[2] = system: A498
[3] = system: CCRF-CEM
[4] = system: COLO 205
[5] = system: HT-29
[6] = system: NCI/ADR-RES
[7] = system: OVCAR-4
[8] = system: OVCAR-5
[9] = system: OVCAR-8
[10] = system: SK-MEL-2
[11] = system: SK-MEL-5
[12] = system: SNB-19
[13] = system: U-251
[14] = system: UACC-257
[15] = system: Malme-3M
[16] = system: NCI-H522
[17] = system: MDA-MB-231

Structure (SMILES)	GI50 [1]	GI50 [2]	GI50 [3]	GI50 [4]	GI50 [5]	GI50 [6]	GI50 [7]	GI50 [8]	GI50 [9]	GI50 [10]	GI50 [11]	GI50 [12]	GI50 [13]	GI50 [14]	GI50 [15]	GI50 [16]	GI50 [17]
O=C1c2ccc3c4ccc5c6c(ccc(c7ccc(c2c37)C(=O)N1CCN1CCCCC1)c64)C(=O)N(CCN1CCCCC1)C5=O	> 100 µM (inactive)	> 100 µM (inactive)	> 100 µM (inactive)	> 100 µM (inactive)	> 100 µM (inactive)	> 100 µM (inactive)	> 100 µM (inactive)	> 100 µM (inactive)	> 100 µM (inactive)	> 100 µM (inactive)	> 100 µM (inactive)	> 100 µM (inactive)	> 100 µM (inactive)	> 100 µM (inactive)	–	–	–
CC(=O)Oc1ccccc1C(=O)O [ASPIRIN]	> 100 µM (inactive)	–	> 100 µM (inactive)	> 100 µM (inactive)	> 100 µM (inactive)	> 100 µM (inactive)	> 100 µM (inactive)	> 100 µM (inactive)	> 100 µM (inactive)	> 100 µM (inactive)	> 100 µM (inactive)	> 100 µM (inactive)	> 100 µM (inactive)	> 100 µM (inactive)	> 100 µM (inactive)	> 100 µM (inactive)	–
c1cc2c(cc1NC1=NCCO1)CCC2	> 10 µM (inactive)	–	> 10 µM (inactive)	> 10 µM (inactive)	> 10 µM (inactive)	–	> 10 µM (inactive)	–	> 10 µM (inactive)	> 10 µM (inactive)	> 10 µM (inactive)	0.0869 µM (active)	–	–	> 10 µM (inactive)	–	–
O=C1CNC(=O)/C(=C/c2c[nH]c3ccccc23)N1	> 100 µM (inactive)	> 100 µM (inactive)	–	–	> 100 µM (inactive)	> 100 µM (inactive)	> 100 µM (inactive)	> 100 µM (inactive)	> 100 µM (inactive)	> 100 µM (inactive)	> 100 µM (inactive)	> 100 µM (inactive)	–	> 100 µM (inactive)	> 100 µM (inactive)	85.3 µM (inactive)	–
CCN1CCC(O)(c2ccc(Oc3ccc(F)cc3)cc2)C(C(=O)c2ccc(Oc3ccc(F)cc3)cc2)C1 (centres undefined)	11.6 µM (inactive)	–	10.1 µM (inactive)	16.6 µM (inactive)	10.6 µM (inactive)	10.3 µM (inactive)	15 µM (inactive)	15 µM (inactive)	15 µM (inactive)	17.2 µM (inactive)	–	15.8 µM (inactive)	16.2 µM (inactive)	15.8 µM (inactive)	15.4 µM (inactive)	–	13.2 µM (inactive)
CN(C)CCNC(=O)c1cc([N+](=O)[O-])ccn1	42.5 µM (inactive)	> 100 µM (inactive)	31.6 µM (inactive)	13.4 µM (inactive)	11.4 µM (inactive)	–	20.2 µM (inactive)	71.4 µM (inactive)	27.2 µM (inactive)	24.2 µM (inactive)	18.6 µM (inactive)	33.6 µM (inactive)	31 µM (inactive)	16.3 µM (inactive)	14.8 µM (inactive)	18.1 µM (inactive)	25.4 µM (inactive)
COc1ccc(N2/C(=N/c3ccccc3)SC(=N/S(=O)(=O)c3ccccc3)/C2=N\S(=O)(=O)c2ccccc2)cc1	24.9 µM (inactive)	20.1 µM (inactive)	20 µM (inactive)	16.4 µM (inactive)	19.6 µM (inactive)	–	–	22.6 µM (inactive)	18.2 µM (inactive)	–	16.6 µM (inactive)	18.7 µM (inactive)	16.7 µM (inactive)	26.8 µM (inactive)	21 µM (inactive)	–	14.3 µM (inactive)
CCOC(=O)/C(=C\NC(C)(C)C)c1nc2ccccc2[nH]1	27.1 µM (inactive)	25.1 µM (inactive)	17.7 µM (inactive)	16 µM (inactive)	17.9 µM (inactive)	32 µM (inactive)	24.5 µM (inactive)	21.5 µM (inactive)	26.1 µM (inactive)	–	12.9 µM (inactive)	39.3 µM (inactive)	–	18.5 µM (inactive)	20.6 µM (inactive)	20.2 µM (inactive)	–

Source: ChEMBL document CHEMBL1201862, “PubChem BioAssay data set” (2004)
